Data on 13 compounds can be found in patent publication US11040981B2, “Pyrrolotriazine compounds and methods of inhibiting TAM kinases” (Syros Pharmaceuticals, Inc., priority 2017, dated 2021).

Test [1] has as its target T1, TYRO3 (Homo sapiens, UniProt Q06418).
T1 sequence (Q06418 41-890): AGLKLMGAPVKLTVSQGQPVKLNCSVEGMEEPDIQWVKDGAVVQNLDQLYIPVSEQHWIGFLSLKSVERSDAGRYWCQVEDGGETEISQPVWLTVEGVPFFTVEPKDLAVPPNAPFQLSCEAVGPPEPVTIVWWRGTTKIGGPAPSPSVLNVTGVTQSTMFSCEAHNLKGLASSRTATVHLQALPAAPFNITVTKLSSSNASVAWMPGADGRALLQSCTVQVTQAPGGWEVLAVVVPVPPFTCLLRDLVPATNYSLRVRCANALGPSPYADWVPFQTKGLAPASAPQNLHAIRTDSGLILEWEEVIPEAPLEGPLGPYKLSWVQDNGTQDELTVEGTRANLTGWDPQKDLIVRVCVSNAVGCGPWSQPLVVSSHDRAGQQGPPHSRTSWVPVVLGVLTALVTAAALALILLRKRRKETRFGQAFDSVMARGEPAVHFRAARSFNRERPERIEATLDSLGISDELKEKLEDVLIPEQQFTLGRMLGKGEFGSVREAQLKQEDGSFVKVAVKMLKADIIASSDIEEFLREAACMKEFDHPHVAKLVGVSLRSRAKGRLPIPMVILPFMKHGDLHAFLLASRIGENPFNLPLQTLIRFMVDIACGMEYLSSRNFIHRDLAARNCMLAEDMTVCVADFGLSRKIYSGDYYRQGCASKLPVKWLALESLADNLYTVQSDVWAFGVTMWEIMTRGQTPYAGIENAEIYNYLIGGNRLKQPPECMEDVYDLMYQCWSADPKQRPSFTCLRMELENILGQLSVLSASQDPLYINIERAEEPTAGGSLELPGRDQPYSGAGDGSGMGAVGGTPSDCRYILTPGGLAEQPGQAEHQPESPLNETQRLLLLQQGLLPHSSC
The test is described as follows: TR-FRET kinase activity assay, TYRO3. The class given is biochemical. The settings on record: ATP at Km, 60 minutes. Put shortly:
(§1)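 Each kinase phosphorylated a fluorescent-labelled tyrosine peptide in 50 mM HEPES pH 7.5, 10 mM MgCl2, 1 mM EGTA, 0.01% Brij 35, 1 mM DTT at RT, with ATP at Km for that enzyme. After 60 min, EDTA quench and Eu-anti-phosphotyrosine antibody (30 min, dark); IC50 from TR-FRET decrease.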
A general note: Time-resolved FRET reads energy transfer from a long-lived donor to a nearby acceptor.

Test [2] has as its target T2, MERTK (Homo sapiens, UniProt Q12866).
T2 sequence (Q12866 21-999): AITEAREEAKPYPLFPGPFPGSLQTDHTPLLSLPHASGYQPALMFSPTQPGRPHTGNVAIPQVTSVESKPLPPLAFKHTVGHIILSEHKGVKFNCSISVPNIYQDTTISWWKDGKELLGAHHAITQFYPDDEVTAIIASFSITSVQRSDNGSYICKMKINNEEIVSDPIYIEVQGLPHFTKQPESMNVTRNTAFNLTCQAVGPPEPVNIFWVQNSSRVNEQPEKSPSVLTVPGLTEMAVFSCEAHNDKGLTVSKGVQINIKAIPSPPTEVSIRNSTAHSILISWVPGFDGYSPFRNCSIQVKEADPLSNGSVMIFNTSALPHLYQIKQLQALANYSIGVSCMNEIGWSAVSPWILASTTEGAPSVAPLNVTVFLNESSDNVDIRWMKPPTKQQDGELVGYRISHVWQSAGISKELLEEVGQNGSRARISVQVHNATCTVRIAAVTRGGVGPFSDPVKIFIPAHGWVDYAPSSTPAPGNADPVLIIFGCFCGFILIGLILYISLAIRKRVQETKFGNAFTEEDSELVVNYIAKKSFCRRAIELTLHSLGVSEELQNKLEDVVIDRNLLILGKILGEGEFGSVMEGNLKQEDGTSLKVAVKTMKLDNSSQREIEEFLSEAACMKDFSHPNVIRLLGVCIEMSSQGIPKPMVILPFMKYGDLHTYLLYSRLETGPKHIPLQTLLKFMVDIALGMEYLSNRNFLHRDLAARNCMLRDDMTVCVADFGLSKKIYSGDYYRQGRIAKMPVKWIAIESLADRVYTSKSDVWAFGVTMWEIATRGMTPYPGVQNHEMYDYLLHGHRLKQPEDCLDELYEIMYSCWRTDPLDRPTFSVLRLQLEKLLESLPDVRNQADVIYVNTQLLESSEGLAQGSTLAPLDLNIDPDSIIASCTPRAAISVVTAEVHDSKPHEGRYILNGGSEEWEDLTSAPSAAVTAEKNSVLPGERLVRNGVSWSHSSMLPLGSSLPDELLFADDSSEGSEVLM
The test is described as follows: TR-FRET kinase activity assay, MERTK. The settings on record: for IC50: TR-FRET activity assay, ATP at Km, 60 minutes, read-out: Mer IC50. The class given is biochemical. Put shortly: as §1

[3] abbreviates: ratio of Mer to FLT3: FLT3 IC50/Mer IC50.
Setting [4] is: ratio calculated as FLT3 IC50/Mer IC50.

Take `COC[C@H](C)Nc1ncc2c(-c3ccnc(O[C@H]4CCNC4)c3)cc([C@H]3CC[C@H](O)CC3)n2n1` [Compound 386]: the half-inhibitory concentration (IC50) in test [1] and in test [2] was no more than 100 nM each time. Also, the “FLT3/Mer ratio (FLT3 IC50/Mer IC50)” value in test [2] (setting [3]) was “+++ (“+++” represents a ratio of >100)”.
Regarding `C[C@@H](CN(C)C)Nc1ncc2c(-c3cnn(C4COC4)c3)cc([C@H]3CC[C@H](O)CC3)n2n1` [Compound 387], the IC50 in test [1] and in test [2] was 100 to 1000 nM each time. Besides, the “FLT3/Mer ratio (FLT3 IC50/Mer IC50)” value in test [2] (setting [3]) is “++ (“++” represents a ratio of between 10 and 100)”.
In the case of `C[C@H](CN(C)C)Nc1ncc2c(-c3cnn(C4COC4)c3)cc([C@H]3CC[C@H](O)CC3)n2n1` [Compound 388], the IC50 – broadly, the point on the concentration scale where inhibition reaches its midpoint – in test [1] was 1000 to 10000 nM; in test [2], 100 to 1000 nM. Moreover, the “FLT3/Mer ratio (FLT3 IC50/Mer IC50)” value in test [2] (setting [3]) was “++ (“++” represents a ratio of between 10 and 100)”.
For the compound `COC[C@H](C)Nc1ncc2c(-c3ccnc(O[C@H]4CCCNC4)c3)cc([C@H]3CC[C@H](O)CC3)n2n1` [Compound 389], the IC50 in test [1] and in test [2] was no more than 100 nM each time. The “FLT3/Mer ratio (FLT3 IC50/Mer IC50)” value in test [2] (setting [3]) is given as “+++ (“+++” represents a ratio of >100)”.
As to `COC[C@H](C)Nc1ncc2c(-c3ccnc(O[C@@H]4CCCNC4)c3)cc([C@H]3CC[C@H](O)CC3)n2n1` [Compound 390], the 50% inhibitory concentration (IC50) in test [1] and in test [2] was no more than 100 nM in each case. Also, the “FLT3/Mer ratio (FLT3 IC50/Mer IC50)” value in test [2] (setting [3]) is listed as “+++ (“+++” represents a ratio of >100)”.
Consider `COC[C@H](C)Nc1ncc2c(-c3ccnc(C)c3)cc([C@H]3CC[C@](C)(O)CC3)n2n1` [Compound 391], for which the concentration for half-maximal inhibition (IC50) in test [1] and in test [2] was no more than 100 nM in each case. Further, the “FLT3/Mer ratio (FLT3 IC50/Mer IC50)” value in test [2] (setting [3]) is given as “+++ (“+++” represents a ratio of >100)”.
Regarding `COC[C@H](C)Nc1ncc2c(-c3cnn(CC4CCOCC4)c3)cc([C@H]3CC[C@H](O)CC3)n2n1` [Compound 392], the IC50 in test [1] and in test [2] was no more than 100 nM in each case. In addition, the “FLT3/Mer ratio (FLT3 IC50/Mer IC50)” value in test [2] (setting [3]) is listed as “+++ (“+++” represents a ratio of >100)”.
Consider `CC(COC(F)F)Nc1ncc2c(-c3cnn(C(C)(C)C(=O)N4CCOCC4)c3)cc(C3CCC(O)CC3)n2n1` (stereo not drawn) [Compound 393], for which the IC50 in test [1] and in test [2] was no more than 100 nM throughout. The “FLT3/Mer ratio (FLT3 IC50/Mer IC50)” value in test [2] (setting [3]) was “+++ (“+++” represents a ratio of >100)”.
Regarding `COC[C@H](C)Nc1ncc2c(-c3cnn(C4CCN(C)C4=O)c3)cc([C@H]3CC[C@H](O)CC3)n2n1` (stereo partly drawn) [Compound 394, 3-(4-(7-((trans)-4-hydroxycyclohexyl)-2-(((S)-1-methoxypropan-2-yl)amino)pyrrolo[2,1-f][1,2,4]triazin-5-yl)-1H-pyrazol-1-yl)-1-methylpyrrolidin-2-one], the half-maximal inhibitory concentration (IC50) in test [1] and in test [2] was no more than 100 nM throughout. Besides, in test [2] (setting [3]), the “FLT3/Mer ratio (FLT3 IC50/Mer IC50)” value was “+++ (“+++” represents a ratio of >100)”.
For `COC[C@H](C)Nc1ncc2c(-c3cnn(CC4CC(=O)N(C)C4)c3)cc([C@H]3CC[C@H](O)CC3)n2n1` (stereo partly drawn) [Compound 395], the IC50 in test [1] and in test [2] was no more than 100 nM throughout. Also, in test [2] (setting [3]), the “FLT3/Mer ratio (FLT3 IC50/Mer IC50)” value is listed as “+++ (“+++” represents a ratio of >100)”.
For `COC[C@H](C)Nc1ncc2c(-c3cnn([C@@H]4CCN(C(C)=O)C4)c3)cc([C@H]3CC[C@H](O)CC3)n2n1` [Compound 396], the IC50 in test [1] and in test [2] was no more than 100 nM each time. Also, the “FLT3/Mer ratio (FLT3 IC50/Mer IC50)” value in test [2] (setting [4]) is “+++ (“+++” represents a ratio of >100)”.
As for `COC[C@H](C)Nc1ncc2c(-c3cnn([C@H]4CCN(C(C)=O)C4)c3)cc([C@H]3CC[C@H](O)CC3)n2n1` [Compound 397], the IC50 in test [1] and in test [2] was no more than 100 nM throughout. The “FLT3/Mer ratio (FLT3 IC50/Mer IC50)” value in test [2] (setting [4]) is given as “+++ (“+++” represents a ratio of >100)”.
`CNC(=O)c1cncc(-c2cc([C@H]3CC[C@H](O)CC3)n3nc(N[C@@H](C)COC(F)F)ncc23)c1` [Compound 398]: the IC50 in test [1] and in test [2] was no more than 100 nM each time. In addition, in test [2] (setting [4]), the “FLT3/Mer ratio (FLT3 IC50/Mer IC50)” value is reported as “+++ (“+++” represents a ratio of >100)”.
